Where two headings read alike, the source gives them in different places.
Tests used:
Type in all cases: cell-based
[1] = tested on: human ovarian cancer cell line SKOV3; experiment: Action on SKOV3 cell-1: 3D (deacylated gellan gum) and 2D culture, HB-EGF medium, ATP assay (Experimental Example 2); conditions: for viability at 0.5 µM / viability at 1 µM / viability at 5 µM / viability at 10 µM / viability at 20 µM: Homo sapiens, SK-OV-3, 96 h, read-out: relative value of RLU (number of viable cells); for viability at 0.5 µM / viability at 1 µM / viability at 5 µM / viability at 10 µM / viability at 20 µM / relative value of RLU (number of viable cells): 4 days, compound non-addition = 100%
Experimental: According to the method of patent document 1 (WO 2014/017513), a composition of McCoy's 5a medium (manufactured by Sigma-Aldrich) containing 0.015% (w/v) deacylated gellan gum (KELCOGEL CG-LA, manufactured by Sansho Co., Ltd.) and 15% (v/v) FBS, 100 ng/mL human HB-EGF (manufactured by PEPROTECH) was prepared by a homomixer. As a control, a non-addition medium composition not containing deacylated gellan gum was prepared. Then, human ovarian cancer cell line SKOV3 (manufactured by DS PHARMA BIO MEDICAL) was suspended in the above-mentioned medium composition added with deacylated gellan gum, and dispensed into the wells of a 384 well flat bottom Ultr-low Attachment surface microplate (manufactured by Corning Incorporated, #3827) at 1000 cells/40 μL/well (three-dimensional culture (3D)). In a single layer culture (2D), human ovarian cancer cell line SKOV3 was suspended in the above-mentioned medium is composition not containing deacylated gellan gum, and dispensed into the wells of a 384 well flat bottom microplate (manufactured by Corning Incorporated, #3712) at 400 cells/40 L per well. Each plate was cultured in a standing state in a CO2 incubator (37° C., 5% CO2). On day 1 of culture, the compound to be used in the present invention dissolved in dimethyl sulfoxide (DMSO) was added by 4.4 μL each at a final concentration of 0, 0.5, 1, 5, 10, 20 μM, and continuously cultured for 4 days. An ATP reagent (44.4 μL) (CellTiter-Glo (registered trade mark) Luminescent Cell Viability Assay, manufactured by Promega) was added to and suspended in the culture medium on day 5, and the suspension was stood for 15 min at room temperature. The luminescence intensity (RLU value) was measured by FlexStation3 (manufactured by Molecular Devices) and the luminescence value of the medium alone was subtracted to measure the number of viable cells.

CD34, CD73, CD29 of hMSC = experiment: Human mesenchymal stem cells-1: cell surface markers by FACS after 3D culture (Experimental Example 9); conditions: for CD34+ (negative rate) / CD29+ (positive rate) / CD73+ (positive rate): hMSC after 3D culture, 10 μM, 7 days; for CD34+ (negative rate): no addition 0.9%; for CD29+ (positive rate): no addition 94.6%; for CD73+ (positive rate): no addition 99.9%; for undifferentiated state of hMSCs (in words): surface markers CD34, CD73, CD29 did not change
Experimental: Human mesenchymal stem cells (hMSC, manufactured by TOYOBO) were precultured by a single layer culture method (2D) using an MF-medium mesenchymal stem cell proliferation medium (manufactured by TOYOBO). In three-dimensional culture method (3D), hMSC were suspended in a medium composition added with deacylated gellan gum, and seeded in a […] flat bottom Ultr-low Attachment surface plate (manufactured by Corning Incorporated, #3471) at 1.2×10^5 cells/2 mL/well. In 2D, hMSC were suspended in a deacylated gellan gum-free medium composition, and seeded in a 6-well flat bottom plate (manufactured by Corning Incorporated, #3516) at 4.0×10^4 cells/2 mL/well. […] As a control, DMSO was added at a final concentration of 0.1%. Seven days later, in the three-dimensional culture method, cells were collected from the wells, washed with PBS, and the supernatant was removed. Then, a trypsin 0.25 w/v % trypsin-1 mmol/L EDTA (ethylenediaminetetraacetic acid) solution (manufactured by Wako Pure Chemical Industries, Ltd.) was added and the cells were incubated at 37° C. for 2-5 min to disperse the spheres into single cells. The medium was added, and the mixture was centrifuged to remove the supernatant. Thereafter, the cells were resuspended in the same medium, a part was suspended in Trypan Blue (manufactured by Wako Pure Chemical Industries, Ltd.), and the number of viable cells was counted using automatic cell counter TC20 (manufactured by BIO-RAD).
CD34 antibody (APC, manufactured by BD Bioscience), CD73 (BV421, manufactured by BD Bioscience), CD29 (BB515, manufactured by BD Bioscience) were added to the above-mentioned cell suspension, and the mixture was incubated on ice for 30 min. The cells were washed twice with 2% SM buffer (2% FBS/PBS), SM containing 1 μg/mL of Propidium Iodide (PI) was added, and the mixture was analyzed with FACSAria (manufactured by Becton Dickinson). The cell number with compound non-addition (control) was taken as 1, and relative value with addition of each compound is calculated in the fifteenth table. The positive rates or negative rates of CD34, CD73, and CD29 of cells after three-dimensional culture (3D) under the conditions with no addition or addition of the compound are shown in the sixteenth table.

[2] = tested on: human epithelial-like cell cancer-derived cell line A431; experiment: Various human cancer cells-2, 3D culture, ATP assay (Experimental Example 6); conditions: 4 days; for viability at 5 µM: Homo sapiens, A-431, 96 h, read-out: number of viable cells (RLU), relative value to control (100%)
Experimental: (§1) Various human-derived cancer cells were precultured (single layer culture) in respective media shown below. […] The above-mentioned cells in the logarithmic growth phase were washed with PBS, a 0.25 w/v % trypsin-1 mmol/L EDTA (ethylenediaminetetraacetic acid) solution (manufactured by Wako Pure Chemical Industries, Ltd.) was added, and adherent cells were detached by incubating at 37° C. for 1-5 min. Each medium was added and the mixture was centrifuged. After resuspension in the same medium, each cell was recovered.
(§2) The aforementioned various cells were suspended in respective deacylated gellan gum-containing or not containing media (deacylated gellan gum concentration was 0.015 w/v %), and seeded in a 96 well low attachment U-bottom plate (manufactured by Corning, #4520, deacylated gellan gum-free medium), or a low attachment flat bottom plate (manufactured by Corning, #3474, deacylated gellan gum-containing medium) at a cell concentration of 700-12000 cells/90 μL/well (all 3D culture). […] The amount of each compound solution to be added was 10 μL/well. As a control, a DMSO solution dissolved in a medium was added (DMSO final concentration 0.1%). […] When compared with the compound no-addition (control), one showing a value of not more than 119% as -, one showing a value of not less than 120% as ◯, and one showing a value of not less than 150% as ⊚ are shown in the eleventh table and the twelfth table. Unperformed test is left blank.

[3] = tested on: human malignant melanoma-derived cell line A375; experiment: as above; conditions: 4 days; for viability at 5 µM / viability at 10 µM: Homo sapiens, A-375, 96 h, read-out: number of viable cells (RLU), relative value to control (100%)
Experimental: as §1, §2

[4] = tested on: human prostate cancer-derived cell DU145; experiment: as above; conditions: 4 days
Experimental: as §1, §2

[5] = tested on: human stomach adenocarcinoma-derived cell line AGS; experiment: as above; conditions: 4 days; for viability at 5 µM / viability at 10 µM: Homo sapiens, 96 h, read-out: number of viable cells (RLU), relative value to control (100%)
Experimental: as §1, §2

[6] = tested on: human uterus cervix cancer-derived cell line HeLa; experiment: as above; conditions: 4 days
Experimental: as §1, §2

[7] = 2D single layer culture, 0.5 μM
[8] = 3D culture (deacylated gellan gum), 0.5 μM
[9] = 3D culture (deacylated gellan gum), 1 μM
[10] = 3D culture (deacylated gellan gum), 5 μM
[11] = 3D culture (deacylated gellan gum), 10 μM
[12] = 3D culture (deacylated gellan gum), 20 μM
[13] = single layer culture (2D) of SKOV3 cells
[14] = three-dimensional culture (3D) of SKOV3 cells
[15] = low attachment U-bottom plate, 5 μM
[16] = low attachment U-bottom plate, 10 μM
[17] = low attachment flat bottom plate (gellan gum medium), 5 μM
[18] = low attachment flat bottom plate (gellan gum medium), 10 μM

In the case of CC/C(=N\NC(=O)Nc1ccccc1)c1ccc(O)c(C)c1O [k-1:H-10], the viability at 0.5 µM [1, 7] is reported as 111%, the viability at 1 µM ([1]; 2D single layer culture, 1 μM) is reported as 108% and the viability at 5 µM ([1]; 2D single layer culture, 5 μM) is reported as 102%. For the same compound, the viability at 10 µM ([1]; 2D single layer culture, 10 μM) was 99%, the viability at 20 µM ([1]; 2D single layer culture, 20 μM) was 66% and the viability at 0.5 µM [1, 8] was 120%. It also gave a viability at 1 µM [1, 9] of 120%, a viability at 5 µM [1, 10] of 128% and a viability at 10 µM [1, 11] of 138%. For the same compound, the viability at 20 µM [1, 12] was 129%, the “cell proliferation promoting effect (in words)” value [1, 13] was “a favorable cell proliferation promoting effect was not observed” and the “cell proliferation promoting effect (in words)” value [1, 14] was “exhibited cell proliferation promoting effect at a wide concentration range”. For the same compound, the “CD34+ (negative rate)” value (CD34, CD73, CD29 of hMSC) was 0.7%, the “CD29+ (positive rate)” value (CD34, CD73, CD29 of hMSC) was 87.6% and the “CD73+ (positive rate)” value (CD34, CD73, CD29 of hMSC) was 99.1%. The “undifferentiated state of hMSCs (in words)” value (CD34, CD73, CD29 of hMSC) was “promote cell proliferation while maintaining undifferentiated state of hMSCs”.
In the case of CCC(=NNC(=O)C(CC)Nc1ccccc1)c1ccc(O)c(C)c1O (stereo not shown) [k-1:H-7], the “relative value of RLU (number of viable cells)” value (from here on “relative value of RLU”) [1, 7] is reported as 110%, the “relative value of RLU” value ([1]; 2D single layer culture, 1 μM) is reported as 105% and the “relative value of RLU” value ([1]; 2D single layer culture, 5 μM) is reported as 91%. The “relative value of RLU” value ([1]; 2D single layer culture, 10 μM) was 69%, the “relative value of RLU” value ([1]; 2D single layer culture, 20 μM) was 47% and the “relative value of RLU” value [1, 8] was 104%. The “relative value of RLU” value [1, 9] was 137%, the “relative value of RLU” value [1, 10] was 176% and the “relative value of RLU” value [1, 11] was 150%. The “relative value of RLU” value [1, 12] was 110%, the “cell proliferation promoting effect (in words)” value [1, 13] was “a favorable cell proliferation promoting effect was not observed” and the “cell proliferation promoting effect (in words)” value [1, 14] was “exhibited cell proliferation promoting effect at a wide concentration range”. The “CD34+ (negative rate)” value (CD34, CD73, CD29 of hMSC) was 3%, the “CD29+ (positive rate)” value (CD34, CD73, CD29 of hMSC) was 94.6% and the “CD73+ (positive rate)” value (CD34, CD73, CD29 of hMSC) was 100%. For the same compound, the “undifferentiated state of hMSCs (in words)” value (CD34, CD73, CD29 of hMSC) was “promote cell proliferation while maintaining undifferentiated state of hMSCs”.
CC/C(=N\NC(=O)C(C)Nc1ccccc1)c1ccc(O)c(C)c1O (stereo not shown) [k-1:B-1] was tested, and the “number of viable cells (RLU), relative value to control (100%)” value (from here on “number … relative value to control (100%)”) [2, 15] was “⊙”, the “number … relative value to control (100%)” value [2, 16] was “⊙” and the “number … relative value to control (100%)” value [2, 17] was “⊙”. The “number … relative value to control (100%)” value [2, 18] was “⊙”, the viability at 5 µM [3, 17] was > 120% and the viability at 10 µM [3, 18] was > 120%. The “number … relative value to control (100%)” value [3, 15] was “⊙”, the “number … relative value to control (100%)” value [3, 16] was “⊙” and the “number … relative value to control (100%)” value [4, 15] was “⊙”. The “number … relative value to control (100%)” value [4, 16] was “⊙”, the “number … relative value to control (100%)” value [4, 17] was “⊙” and the “number … relative value to control (100%)” value [4, 18] was “⊙”. For the same compound, the viability at 5 µM [5, 17] was > 120%, the “number … relative value to control (100%)” value [5, 15] was “⊙” and the “number … relative value to control (100%)” value [5, 16] was “⊙”. The “number … relative value to control (100%)” value [5, 18] was “⊙”, the “number … relative value to control (100%)” value [6, 15] was “⊙” and the “number … relative value to control (100%)” value [6, 16] was “⊙”. The “number … relative value to control (100%)” value [6, 17] was “⊙” and the “number … relative value to control (100%)” value [6, 18] was “⊙”.
In the case of CC/C(=N\NC(=O)NCc1ccccc1)c1ccc(O)c(C)c1O [k-1:I-1], the viability at 5 µM [2, 15] is reported as 120 to 150%, the viability at 5 µM [2, 17] is reported as < 119% and the “number … relative value to control (100%)” value [2, 16] is reported as “⊙”. The “number … relative value to control (100%)” value [2, 18] was “⊙”, the viability at 5 µM [3, 15] was 120 to 150% and the viability at 10 µM [3, 16] was 120 to 150%. The viability at 5 µM [3, 17] was < 119%, the viability at 10 µM [3, 18] was < 119% and the viability at 5 µM ([4]; Homo sapiens, DU-145, 96 h, low attachment U-bottom plate, 5 μM, read-out: number of viable cells (RLU), relative value to control (100%)) was < 119%. For the same compound, the viability at 10 µM ([4]; Homo sapiens, DU-145, 96 h, low attachment U-bottom plate, 10 μM, read-out: number of viable cells (RLU), relative value to control (100%)) was 120 to 150%, the viability at 5 µM ([4]; Homo sapiens, DU-145, 96 h, low attachment flat bottom plate (gellan gum medium), 5 μM, read-out: number of viable cells (RLU), relative value to control (100%)) was 120 to 150% and the “number … relative value to control (100%)” value [4, 18] was “⊙”. The viability at 5 µM [5, 15] was < 119%, the viability at 10 µM [5, 16] was 120 to 150% and the viability at 5 µM [5, 17] was 120 to 150%. For the same compound, the viability at 10 µM [5, 18] was 120 to 150%, the viability at 5 µM ([6]; Homo sapiens, 96 h, low attachment U-bottom plate, 5 μM, read-out: number of viable cells (RLU), relative value to control (100%)) was < 119% and the viability at 10 µM ([6]; Homo sapiens, 96 h, low attachment U-bottom plate, 10 μM, read-out: number of viable cells (RLU), relative value to control (100%)) was < 119%.

Reference: patent US20200165194A1, “ADDITIVE COMPOSITION FOR CULTURE MEDIUM, ADDITIVE COMPOUND FOR CULTURE MEDIUM, AND METHOD FOR CULTURE OF CELLS OR TISSUE USING SAME” (NISSAN CHEMICAL CORPORATION, priority 2017, published 2020)
